Data on 98 compounds can be found in PubChem BioAssay AID1648 (Sanford-Burnham Center for Chemical Genomics, 2009).

The source made the active and inactive calls. The rule behind the calls is not given here.

The target in the assay is Serine/threonine-protein kinase mTOR (Homo sapiens) (UniProt P42345). The experiment in a line: binders of mTOR FRB domain, biophysical, NMR (AID 1648). The following applies: NMR binding to FRB domain, chemical shift.
Serine/threonine-protein kinase mTOR (Homo sapiens), sequence (P42345 2015-2114): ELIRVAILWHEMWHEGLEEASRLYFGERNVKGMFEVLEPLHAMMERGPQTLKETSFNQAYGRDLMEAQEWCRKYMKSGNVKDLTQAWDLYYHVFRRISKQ
As to `Cc1ccc2c(c1)CC[C@H]1CC(=O)CC[C@]21C`, the Kd is > 4 mM (inactive).
As for `O=C(O)CCN1CCOCC1`, the Kd was > 4 mM (inactive).
Consider `NC(=O)c1ccc(SCC(=O)O)c([N+](=O)[O-])c1`, for which the Kd is > 4 mM (inactive).
As for `c1ccc(-c2noc(-c3cccnc3)n2)nc1`, the Kd was > 4 mM (inactive).
On to `OCc1ccc(Oc2ccccc2)nc1`, for which the Kd was > 4 mM (inactive).
On to `O=CN1CCN(C(=O)c2ccco2)CC1`, for which the Kd was > 4 mM (inactive).
Then `CN1CCC(NC(=O)c2c(F)cccc2Cl)CC1`, with > 4 mM (inactive); and `Cc1nc2nc(COc3ccccc3)nn2c(C)c1Cl`, with > 4 mM (inactive); and `O=C(Nn1cnnc1)c1csc2ccccc12`, with > 4 mM (inactive).
`COc1ccc2cc1Oc1ccc(cc1)C[C@H]1c3cc(c(OC)cc3CCN1C)Oc1c(OC)c(OC)cc3c1[C@H](C2)N(C)CC3`: the Kd is > 4 mM (inactive).
`O=C1C2C3C=CC(C3)C2C(=O)N1c1ccccn1` (stereo not drawn): the Kd was > 4 mM (inactive).
Turning to `CC(=O)Nn1cc2c(=O)n(C)c(=O)n(C)c2c1`, the Kd was > 4 mM (inactive).
With `COC(=O)[C@]1(C)CC[C@]2(C)CC[C@]3(C)C4=CC=C5C(=CC(=O)C(O)=C5C)[C@]4(C)CC[C@@]3(C)[C@@H]2C1`, the Kd is > 4 mM (inactive).
Take `NCCCCN=C(N)N`: the Kd is > 4 mM (inactive).
The result for `Cc1cc(C)n(-c2cccc3cccnc23)n1` reads > 4 mM (inactive); that for `COc1ccc(/C=C/c2cc(O)cc(O)c2)cc1`, > 4 mM (inactive).
Turning to `C(=Nn1cnnc1)c1ccccc1`, the Kd was > 4 mM (inactive).
For `CC(=O)c1cccc(NC(=O)NN2CCOCC2)c1`, the Kd was > 4 mM (inactive).
For `CN(C(N)=O)C1(C)CCS(=O)(=O)C1` (stereo not drawn), the Kd was > 4 mM (inactive).
Consider `O=C(O)CCC(=O)c1cccc2ccccc12`, for which the Kd is > 4 mM (inactive).
Turning to `CC1(C)CC[C@]2(C(=O)O)CC[C@]3(C)C(=CCC4[C@@]5(C)CC[C@H](O)[C@@](C)(CO)C5CC[C@]43C)C2C1` (stereo partly drawn), the Kd is > 4 mM (inactive).
Then `O=C(Nc1ccccc1)N1CCOCC1`, with > 4 mM (inactive); and `Cn1nnc2cc(C(=O)Nc3cccnc3)ccc21`, with > 4 mM (inactive); and `c1ccc(CCc2nc(-c3ccncc3)no2)cc1`, with > 4 mM (inactive).
Turning to `CNC(=O)Nc1ccc(C(=O)NC)cc1`, the Kd is > 4 mM (inactive).
As to `O=C1NC(=O)C(C(C[N+](=O)[O-])c2ccc(O)cc2)C(=O)N1` (stereo not drawn), the Kd is > 4 mM (inactive).
In the case of `O=C(/C=C/C=C/c1ccc2c(c1)OCO2)N1CCCCC1`, the Kd is > 4 mM (inactive).
Then `CCN(CC)C(=O)c1n[nH]c(=O)c2ccccc12`, with > 4 mM (inactive); and `OCCNc1nc2ccc(Cl)cc2[nH]1`, with > 4 mM (inactive); and `Clc1ccc(-n2ccnc2)nn1`, with > 4 mM (inactive).
On to `NC(=O)c1c[nH]c2ccccc12`, for which the Kd is > 4 mM (inactive).
As to `O=C(O)C1(S(=O)(=O)c2ccccc2)CC1`, the Kd is > 4 mM (inactive).
For `CC1CCN(S(=O)(=O)N(C)C)CC1`, the Kd is > 4 mM (inactive).
Turning to `CN(C)N1C(=O)C2C3C=CC(O3)C2C1=O` (stereo not drawn), the Kd was > 4 mM (inactive).
In the case of `C[C@H]1O[C@@H](O[C@H]2[C@@H](O)C[C@H](O[C@H]3[C@@H](O)C[C@H](O[C@H]4CC[C@]5(C)C6CC[C@]7(C)[C@@H](C8=CC(=O)OC8)CC[C@]7(O)C6CC[C@@H]5C4)O[C@@H]3C)O[C@@H]2C)C[C@H](O)[C@@H]1O` (stereo partly drawn), the Kd was > 4 mM (inactive).
`CSc1ccccc1NC(=O)c1ccco1`: the Kd was > 4 mM (inactive).
For the compound `CC(C)c1c(O)ccc2c1CCC1[C@@](C)(CO)CCC[C@]21C` (stereo partly drawn), the Kd is > 4 mM (inactive).
Then `CCn1c(-c2c[nH]c3ccccc23)n[nH]c1=S`, with > 4 mM (inactive); and `NC(=O)c1ccc(NC(=O)c2cccnc2)cc1`, with > 4 mM (inactive); and `CCC[C@@H]1CCCCN1`, with > 4 mM (inactive).
As for `Nc1nc(-c2ccccc2)cc(=O)[nH]1`, the Kd is > 4 mM (inactive).
Regarding `O=C1NC(=S)S/C1=C/c1ccncc1`, the Kd was > 4 mM (inactive).
Then `O=C(O)CC(O)c1nc2ccccc2[nH]1` (stereo not drawn), with > 4 mM (inactive); and `CCOC(=O)C1CCC(=O)c2cccn21` (stereo not drawn), with > 4 mM (inactive).
`Cc1cc(C)nc(NC(N)=NCc2ccco2)n1`: the Kd was > 4 mM (inactive).
Then `CCN1CC2(C)CC[C@H](OC)[C@]34C2[C@H](O)C2(OCO[C@@]25C[C@H](OC)[C@H]2C[C@]3(O)C5[C@H]2O)C14`, with > 4 mM (inactive); and `O=C(Nc1ccon1)c1cccc(C(F)(F)F)c1`, with > 4 mM (inactive); and `COc1ccc([C@@H]2CC(=O)c3c(O)cc(O[C@@H]4O[C@H](CO[C@H]5O[C@@H](C)[C@H](O)[C@@H](O)[C@H]5O)[C@@H](O)[C@H](O)[C@H]4O)cc3O2)cc1O`, with > 4 mM (inactive).
With `O=C(/C=C/c1ccc(O)cc1)c1ccc(O)cc1O`, the Kd is > 4 mM (inactive).
Turning to `Cc1onc(-c2ccccc2)c1C(=O)O`, the Kd is > 4 mM (inactive).
On to `O=C(c1ccccc1)c1ccc(N2CCNCC2)cc1`, for which the Kd is > 4 mM (inactive).
The result for `CNC(=O)c1cc(S(=O)(=O)N(C)C)ccc1Cl` reads > 4 mM (inactive); that for `COc1c(O)cc2c(-c3ccccc3)cc(=O)oc2c1OC`, > 4 mM (inactive).
On to `O=C(NCc1ccc2c(c1)OCO2)c1cccs1`, for which the Kd is > 4 mM (inactive).
With `CN(C)c1ccc(NC(=O)CC(C(=O)O)N(C)C)cc1` (stereo not drawn), the Kd is > 4 mM (inactive).
For the compound `O=C(O)c1ccc(N2CCCCC2)cc1`, the Kd was > 4 mM (inactive).
The result for `S=C(c1ccc(N2CCOCC2)cc1)N1CCCCC1` reads > 4 mM (inactive); that for `c1ccc(Cc2nnc3sc(-c4ccccn4)nn23)cc1`, > 4 mM (inactive); that for `Cc1cc(C(=O)Nn2cnnc2)cs1`, > 4 mM (inactive).
On to `CNC(=O)N1CCN(C(=O)NC)CC1`, for which the Kd was > 4 mM (inactive).
As to `Cc1cc(=O)cc(C)n1NC(N)=S`, the Kd is > 4 mM (inactive).
For the compound `CC(C)[C@@H]1CC[C@@H](C)CC1=O`, the Kd was > 4 mM (inactive).
Consider `Cn1c(O)c(/C=C2\C=CC=N2)c(=O)[nH]c1=S`, for which the Kd is > 4 mM (inactive).
Take `Cc1nn2c(=O)nc3sc4c(c3c2[nH]c1=O)CCCC4`: the Kd was > 4 mM (inactive).
As to `Cc1cccc(NC(=O)CN2C(=O)CNC2=O)c1`, the Kd is > 4 mM (inactive).
The result for `N[C@@H](Cc1ccc(O)c(O)c1)C(=O)O` reads > 4 mM (inactive); that for `CC(NC(=O)C1CCCCC1)C(=O)NC1=NCCS1` (stereo not drawn), > 4 mM (inactive).
Consider `Nc1ncnc2c1ncn2CCN1CCCCC1`, for which the Kd is > 4 mM (inactive).
Regarding `CN(C)C(=S)Nc1ccccc1N1CCOCC1`, the Kd was > 4 mM (inactive).
`C=C(C)[C@@H]1CC[C@]2(CO)CC[C@]3(C)[C@H](CCC4[C@@]5(C)CC[C@H](O)C(C)(C)C5CC[C@]43C)C12` (stereo partly drawn): the Kd is > 4 mM (inactive).
On to `CCC[C@H]1CC2=C(C[C@@H](CC)CC3=C1C(=O)OC3=O)C(=O)OC2=O`, for which the Kd is > 4 mM (inactive).
Regarding `COC(=O)c1cncn1C`, the Kd is > 4 mM (inactive).
The result for `O=C(O)c1ccnc2ccccc12` reads > 4 mM (inactive).
`CCOC(=O)c1csc(C)n1`: the Kd is > 4 mM (inactive).
The result for `OC12CC3CC(CC(C3)C1)C2` reads > 4 mM (inactive); that for `O=C(NC1CCS(=O)(=O)C1)c1cccs1` (stereo not drawn), > 4 mM (inactive); that for `O=C(O)c1cccc2c1OCCCO2`, > 4 mM (inactive).
`CNC(=O)C1COc2ccccc2O1` (stereo not drawn): the Kd was > 4 mM (inactive).
Consider `COc1ccccc1NS(=O)(=O)c1c[nH]c(=O)[nH]c1=O`, for which the Kd was > 4 mM (inactive).
Consider `C=C1C2CC[C@H]3[C@]4(C)C[C@H](OC5OC(CO)C(OS(=O)(=O)O)C(OS(=O)(=O)O)C5OC(=O)CC(C)C)C[C@@H](C(=O)O)[C@H]4CC[C@]3(C2)[C@H]1O` (stereo partly drawn), for which the Kd is > 4 mM (inactive).
As to `O=C(Nc1cccnc1)N1CCOCC1`, the Kd was > 4 mM (inactive).
The result for `O=C1C2CC=CCC2C(=O)N1c1ccccc1O` (stereo not drawn) reads > 4 mM (inactive); that for `COc1c2ccoc2c(OC)c2oc(=O)ccc12`, > 4 mM (inactive); that for `Cc1nnc(SCc2ccc(F)cc2)s1`, > 4 mM (inactive).
Then `CC(C)CCCC(C)C1CCC2C3CC(=O)[C@H]4C[C@@H](O)CC[C@]4(C)C3CC[C@]12C` (stereo partly drawn), with > 4 mM (inactive); and `c1ccc(-n2nnnc2Oc2cccc3cccnc23)cc1`, with > 4 mM (inactive); and `c1ccc2nc3c(nc2c1)CCc1nonc1-3`, with > 4 mM (inactive).
Turning to `O=C1c2ccncc2C(=O)N1CNc1ccccn1`, the Kd is > 4 mM (inactive).
For the compound `O=S1(=O)C=CC(Nc2ccccc2)C1` (stereo not drawn), the Kd is > 4 mM (inactive).
For `Oc1ccc2c(c1)OCC1(O)Cc3cc(O)c(O)cc3C21` (stereo not drawn), the Kd was > 4 mM (inactive).
`O=C(O)c1csc(-c2cccs2)n1`: the Kd is > 4 mM (inactive).
Regarding `NC(=O)Nc1cccc(C(F)(F)F)c1`, the Kd was > 4 mM (inactive).
Then `CC(=O)Nc1ccc(C(=O)NC2CCSC2=O)cc1` (stereo not drawn), with > 4 mM (inactive); and `CC1(C)Cc2cccc(CO)c2O1`, with > 4 mM (inactive).
Then `Cc1ccc(C)n1/N=C1\NC(=O)CS1`, with > 4 mM (inactive).
Consider `Nc1cc(F)cc(F)c1`, for which the Kd was > 4 mM (inactive).
Regarding `O=C(O)CCC1NCC2CC1CN1CCCCC21` (stereo not drawn), the Kd is > 4 mM (inactive).
In the case of `CC(=O)Nc1ccc(CN2CCOCC2)cc1`, the Kd is > 4 mM (inactive).
